As a reminder, the pIC50 is −log10 of the IC50, conventionally taken in molar units.

The values that follow come from patent publication US20080234132A1, “Microcin B17 Analogs And Methods For Their Preparation And Use” (priority 2004, published 2008).

The target in test [1] is T1, Human topoisomerase I (Homo sapiens, UniProt P11387).
T1 construct: purchased TopoGEN Inc. (Port Orange, Fla., USA)
T1 sequence (P11387 1-765): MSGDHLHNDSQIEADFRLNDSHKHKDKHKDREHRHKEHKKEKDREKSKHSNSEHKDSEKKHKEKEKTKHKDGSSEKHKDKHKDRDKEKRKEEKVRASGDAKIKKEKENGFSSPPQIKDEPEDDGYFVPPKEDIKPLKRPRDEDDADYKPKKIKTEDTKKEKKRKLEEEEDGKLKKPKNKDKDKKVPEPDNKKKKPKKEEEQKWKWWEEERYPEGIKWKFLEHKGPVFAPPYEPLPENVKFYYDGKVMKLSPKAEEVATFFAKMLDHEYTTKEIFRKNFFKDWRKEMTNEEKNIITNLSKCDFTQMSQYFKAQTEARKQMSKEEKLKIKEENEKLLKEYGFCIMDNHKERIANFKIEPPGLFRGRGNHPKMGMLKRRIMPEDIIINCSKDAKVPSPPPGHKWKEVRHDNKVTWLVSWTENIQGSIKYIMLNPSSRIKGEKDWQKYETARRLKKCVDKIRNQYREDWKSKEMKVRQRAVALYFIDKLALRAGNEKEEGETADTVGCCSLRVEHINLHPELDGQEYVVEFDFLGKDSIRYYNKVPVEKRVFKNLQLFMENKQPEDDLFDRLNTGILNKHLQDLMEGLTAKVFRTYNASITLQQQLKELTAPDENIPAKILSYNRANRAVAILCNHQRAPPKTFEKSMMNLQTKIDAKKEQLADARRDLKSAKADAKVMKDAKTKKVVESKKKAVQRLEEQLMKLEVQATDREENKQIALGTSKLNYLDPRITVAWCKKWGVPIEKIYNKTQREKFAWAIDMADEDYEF
As to the kind of experiment: Human topoisomerase I-mediated relaxation assay. The format is biochemical. Conditions: read-out: Topo I Human IC50. On the procedure: Human topoisomerase I-mediated relaxation assays were performed as per the manufacturer's instructions. Topoisomerase I (2 nM) was added to reactions containing 10 mM of Tris.HCl, pH 7.9, 150 mM NaCl, 100 μM spermidine.HCl, 5% glycerol, 0.1% BSA, 4.6 nM of […] pBR322 DNA, and inhibitor where appropriate.
(§1) All in vitro reactions were incubated at 37° C. for 30 minutes. The DMSO concentration in each reaction was kept constant at 3.33%. Reactions were quenched with the addition of an equal volume of phenol/chloroform/isoamyl alcohol (25:24:1) and one tenth volume of loading buffer containing 40% sucrose, 100 mM Tris.HCl pH 7.5, 100 mM EDTA, 2 mg/mL bromophenol blue. The proteins were precipitated by vortexing, followed by centrifugation for 5 minutes at 16 000 g. The aqueous phase was loaded onto 1% agarose gels in Tris-acetate and were electrophoresed at 60 V for three hours in Tris-acetate buffer. The gels were stained in 1 μg/mL ethidium bromide. The gels were visualised using UV light and were documented and analysed using Syngene software.

Test [2] addresses T2, Human topoisomerase IIα (Homo sapiens, UniProt P11388). As to the kind of experiment: Human Topoisomerase IIα-mediated relaxation assay. The format is biochemical. Conditions: read-out: Topo IIα Human, R (relaxation reaction) IC50. On the set-up: purchased TopoGEN Inc. (Port Orange, Fla., USA). On the procedure: (§2) Human Topoisomerase IIα-mediated relaxation assays and decatenation assays were performed as per the manufacturer's instructions in a total of 20 μL. Relaxation assays contained Topoisomerase IIα (4.3 nM), 50 mM Tris.HCl pH 8,120 mM KCl, 10 mM MgCl2, 0.5 mM DTT, 0.5 mM ATP, 4.6 nM of supercoiled pBR322 DNA, and inhibitor where appropriate. Decatenation assays substituted the supercoiled DNA with 200 ng catenated kinetoplast DNA.
as §1

Test [3] concerns the target T2, Human topoisomerase IIα. As to the kind of experiment: Human Topoisomerase IIα decatenation assay. Conditions: read-out: Topo IIα Human, D (decatenation reaction) IC50. It is filed as biochemical. On the set-up: purchased TopoGEN Inc. (Port Orange, Fla., USA). As to the method: as §2, §1
The target of test [4] is T2, Human topoisomerase IIα. As to the kind of experiment: Human topoisomerase IIα-mediated decatenation assay. Further details: purchased TopoGEN Inc. It is filed as biochemical. On the procedure: as §2, §1
In test [5] the target is T3, E. coli Topoisomerase IV (Escherichia coli, UniProt P0AFI2+P20083). The test is described as follows: biochemical. Conditions: read-out: Topo IV, R (relaxation reaction) IC50. Further details: purchased John Innes Enterprises (Norwich, UK).
Procedure: (§3) Topoisomerase IV-mediated relaxation assays and decatenation assays were performed as previously described (see Peng and Marians, 1993). […] Decatenation assays contained topoisomerase IV (4 nM), 40 mM Tris HCl pH 7.5 at 30° C., 6 mM MgCl2, 10 mM DTT, 1 mM spermidine.HCl, 100 mM potassium glutamate, 0.5 mM ATP, 0.5 mg/mL BSA, 200 ng of kinetoplast DNA, and inhibitor where appropriate.
Test [6] concerns the target T3, E. coli Topoisomerase IV. As to the kind of experiment: biochemical. It is filed as biochemical. On the set-up: purchased John Innes Enterprises (Norwich, UK).
Procedure: as §3

pIC50: −log10 of the molar value. Read-outs that look alike come from different tables or passages of the source.

T3 sequence (P20083 whole entry): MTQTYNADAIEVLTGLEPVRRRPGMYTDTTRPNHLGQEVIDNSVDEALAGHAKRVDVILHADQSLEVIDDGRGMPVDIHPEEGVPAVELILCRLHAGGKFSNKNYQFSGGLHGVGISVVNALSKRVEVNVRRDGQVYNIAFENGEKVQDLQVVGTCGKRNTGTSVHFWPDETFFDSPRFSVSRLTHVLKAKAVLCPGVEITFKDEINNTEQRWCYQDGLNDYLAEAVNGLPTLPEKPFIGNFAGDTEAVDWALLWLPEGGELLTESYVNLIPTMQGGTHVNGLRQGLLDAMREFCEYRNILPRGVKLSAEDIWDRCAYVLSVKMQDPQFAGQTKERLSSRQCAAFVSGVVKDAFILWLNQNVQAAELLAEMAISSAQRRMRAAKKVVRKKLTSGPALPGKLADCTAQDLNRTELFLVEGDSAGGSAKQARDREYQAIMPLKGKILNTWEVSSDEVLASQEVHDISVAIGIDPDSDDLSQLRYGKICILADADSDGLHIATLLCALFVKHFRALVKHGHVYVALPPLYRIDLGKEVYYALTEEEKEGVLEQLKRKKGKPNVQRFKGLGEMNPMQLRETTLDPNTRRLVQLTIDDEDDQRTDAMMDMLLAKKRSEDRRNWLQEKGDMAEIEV
T3 sequence (P0AFI2 whole entry): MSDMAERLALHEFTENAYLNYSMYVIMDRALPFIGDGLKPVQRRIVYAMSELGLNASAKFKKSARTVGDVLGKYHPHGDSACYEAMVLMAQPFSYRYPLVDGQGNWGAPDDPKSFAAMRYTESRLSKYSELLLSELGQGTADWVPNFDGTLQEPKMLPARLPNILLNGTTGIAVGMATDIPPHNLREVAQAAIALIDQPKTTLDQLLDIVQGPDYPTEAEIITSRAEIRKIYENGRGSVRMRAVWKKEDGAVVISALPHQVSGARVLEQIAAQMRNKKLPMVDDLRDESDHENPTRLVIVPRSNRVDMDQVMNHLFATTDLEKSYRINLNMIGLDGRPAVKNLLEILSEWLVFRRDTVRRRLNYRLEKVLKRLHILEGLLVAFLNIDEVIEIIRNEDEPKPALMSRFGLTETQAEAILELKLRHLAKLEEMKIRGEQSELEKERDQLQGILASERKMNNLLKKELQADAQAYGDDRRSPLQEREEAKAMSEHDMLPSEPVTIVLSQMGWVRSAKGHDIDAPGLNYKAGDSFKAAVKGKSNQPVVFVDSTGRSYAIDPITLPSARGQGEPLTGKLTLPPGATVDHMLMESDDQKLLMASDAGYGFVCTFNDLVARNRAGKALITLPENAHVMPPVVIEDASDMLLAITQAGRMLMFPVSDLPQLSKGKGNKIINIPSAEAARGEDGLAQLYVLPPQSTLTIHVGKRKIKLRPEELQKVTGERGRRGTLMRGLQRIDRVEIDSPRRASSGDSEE
T2 sequence (P11388 whole entry): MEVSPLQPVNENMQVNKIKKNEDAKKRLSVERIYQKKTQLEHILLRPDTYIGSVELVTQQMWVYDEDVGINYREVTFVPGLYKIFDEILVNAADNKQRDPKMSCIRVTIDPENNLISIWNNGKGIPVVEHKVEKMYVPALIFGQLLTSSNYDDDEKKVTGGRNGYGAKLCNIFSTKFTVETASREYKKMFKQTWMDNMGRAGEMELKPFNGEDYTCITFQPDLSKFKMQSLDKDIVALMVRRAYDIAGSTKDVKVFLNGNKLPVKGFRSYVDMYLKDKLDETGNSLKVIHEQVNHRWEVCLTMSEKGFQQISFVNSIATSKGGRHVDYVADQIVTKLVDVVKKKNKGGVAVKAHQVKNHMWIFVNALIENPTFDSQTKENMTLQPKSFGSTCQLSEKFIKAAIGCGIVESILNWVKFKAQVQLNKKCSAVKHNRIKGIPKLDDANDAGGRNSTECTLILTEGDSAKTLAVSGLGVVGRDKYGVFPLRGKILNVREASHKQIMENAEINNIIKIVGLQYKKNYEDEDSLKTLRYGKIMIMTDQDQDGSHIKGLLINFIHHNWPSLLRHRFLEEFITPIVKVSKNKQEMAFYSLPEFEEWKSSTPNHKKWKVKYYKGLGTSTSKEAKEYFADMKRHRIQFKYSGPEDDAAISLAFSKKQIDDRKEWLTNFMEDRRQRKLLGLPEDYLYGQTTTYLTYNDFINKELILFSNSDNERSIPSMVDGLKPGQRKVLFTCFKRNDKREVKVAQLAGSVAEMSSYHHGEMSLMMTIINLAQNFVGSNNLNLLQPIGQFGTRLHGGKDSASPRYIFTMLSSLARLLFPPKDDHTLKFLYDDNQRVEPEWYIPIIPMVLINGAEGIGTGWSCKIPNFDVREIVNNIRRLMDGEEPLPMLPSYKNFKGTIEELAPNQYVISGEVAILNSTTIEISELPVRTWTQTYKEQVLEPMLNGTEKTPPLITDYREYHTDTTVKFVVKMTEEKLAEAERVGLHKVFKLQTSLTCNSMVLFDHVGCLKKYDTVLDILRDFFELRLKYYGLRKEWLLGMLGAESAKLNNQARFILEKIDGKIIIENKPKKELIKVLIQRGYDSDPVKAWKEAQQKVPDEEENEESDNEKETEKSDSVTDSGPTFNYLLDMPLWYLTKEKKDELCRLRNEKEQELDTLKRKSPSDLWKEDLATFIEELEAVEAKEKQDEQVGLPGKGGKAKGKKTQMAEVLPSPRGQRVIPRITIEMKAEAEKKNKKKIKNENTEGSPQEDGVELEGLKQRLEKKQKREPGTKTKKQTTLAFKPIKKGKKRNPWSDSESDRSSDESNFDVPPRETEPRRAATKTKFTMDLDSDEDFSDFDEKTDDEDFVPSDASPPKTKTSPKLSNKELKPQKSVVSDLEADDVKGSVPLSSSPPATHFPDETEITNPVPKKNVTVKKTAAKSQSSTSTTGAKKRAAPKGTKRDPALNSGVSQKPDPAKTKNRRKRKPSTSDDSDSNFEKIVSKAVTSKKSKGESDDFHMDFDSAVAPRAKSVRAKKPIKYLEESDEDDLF

Regarding `CC(C)(C)OC(=O)NCc1nc(C(=O)O)co1` [#6], the negative logarithm of the IC50 (pIC50) in test [1] is < 3.52; in test [2] it was < 3.60; in test [3] it was < 3.60; in test [5], < 3.52; in test [6] (read-out: Topo IV, D (decatenation reaction) IC50), 3.70. Moreover, in test [4], the “Decatenation activity of eukaryotic topoisomerase IIα, sensitivity” value was “albeit weakly”. Moreover, the “Topo IV, D (decatenation reaction) IC50” value in test [6] is recorded as “weakly”.
